Experimental data taken from patent publication US9510598B2, “Nitrogen-containing heterocyclic compounds for plant disease control” (BAYER CROPSCIENCE AG, priority 2012, dated 2016).

Format: physicochemical
Details: HPLC on reversed phase columns, method [a]: pH 2.7, 0.1% formic acid in water / acetonitrile, linear gradient 10% to 95% acetonitrile
For `CCCCn1cc(CNC(=O)C2(C)CC(c3ccc4ncc(Br)cc4c3)=NO2)c(C)n1` (stereo not shown) [compound 657], the “log P” value was 2.96[a]. For `C#Cc1cnc2ccc(C3=NOC(C)(C(=O)N(OC)C(C)CC)C3)cc2c1` (stereo not shown) [compound 658], the “log P” value was 3.50[a]. With `CCC(C)N(OC)C(=O)C1(C)CC(c2ccc3ncc(Br)cc3c2)=NO1` (stereo not shown) [compound 659] the “log P” value was 3.96[a]. For `C#Cc1cnc2ccc(C3=NOC(C)(C(=O)NCc4cccc(C(C)C)n4)C3)cc2c1` (stereo not shown) [compound 660], the “log P” value was 2.07[a]. With `CC1(C(=O)NCc2ncccn2)CC(c2ccc3ncc(Br)cc3c2)=NO1` (stereo not shown) [compound 661] the “log P” value was 2.13[a]. For `Cc1cc(C)nc(CNC(=O)C2(C)CC(c3ccc4ncc(Br)cc4c3)=NO2)n1` (stereo not shown) [compound 662], the “log P” value was 2.51[a]. With `C#Cc1cnc2ccc(C3=NOC(C)(C(=O)NCc4ccncn4)C3)cc2c1` (stereo not shown) [compound 663] the “log P” value was 1.78[a]. In the case of `COc1ccnc(CNC(=O)C2(C)CC(c3ccc4ncc(Br)cc4c3)=NO2)c1` (stereo not shown) [compound 664], the “log P” value is reported as 1.49[a]. For `C#Cc1cnc2ccc(C3=NOC(C)(C(=O)NCc4cccc(OC)n4)C3)cc2c1` (stereo not shown) [compound 665], the “log P” value was 2.77[a]. With `COc1ccc(CNC(=O)C2(C)CC(c3ccc4ncc(Br)cc4c3)=NO2)nc1` (stereo not shown) [compound 666] the “log P” value was 2.20[a]. For `COc1cccc(CNC(=O)C2(C)CC(c3ccc4ncc(Br)cc4c3)=NO2)n1` (stereo not shown) [compound 667], the “log P” value was 3.11[a]. With `C#Cc1cnc2ccc(C3=NOC(C)(C(=O)NCc4cn(C5CC5)nc4C)C3)cc2c1` (stereo not shown) [compound 668] the “log P” value was 2.26[a]. With `Cc1nn(C2CC2)cc1CNC(=O)C1(C)CC(c2ccc3ncc(Br)cc3c2)=NO1` (stereo not shown) [compound 669] the “log P” value was 2.52[a]. For `COc1ccncc1CNC(=O)C1(C)CC(c2ccc3ncc(Br)cc3c2)=NO1` (stereo not shown) [compound 670], the “log P” value was 1.40[a]. For `COc1cc(CNC(=O)C2(C)CC(c3ccc4ncc(Br)cc4c3)=NO2)ccn1` (stereo not shown) [compound 671], the “log P” value was 2.54[a]. With `C#Cc1cnc2ccc(C3=NOC(C)(C(=O)NCc4cnccc4OC)C3)cc2c1` (stereo not shown) [compound 672] the “log P” value was 1.27[a]. For `COc1cnccc1CNC(=O)C1(C)CC(c2ccc3ncc(Br)cc3c2)=NO1` (stereo not shown) [compound 673], the “log P” value was 1.56[a]. With `C#Cc1cnc2ccc(C3=NOC(C)(C(=O)NCc4ccnc(OC)c4)C3)cc2c1` (stereo not shown) [compound 674] the “log P” value was 2.26[a]. With `COc1ccc(CNC(=O)C2(C)CC(c3ccc4ncc(Br)cc4c3)=NO2)nn1` (stereo not shown) [compound 675] the “log P” value was 2.28[a]. For `C#Cc1cnc2ccc(C3=NOC(C)(C(=O)NCc4ccncc4OC)C3)cc2c1` (stereo not shown) [compound 676], the “log P” value was 1.40[a]. With `C#Cc1cnc2ccc(C3=NOC(C)(C(=O)NCc4cc(OC)ccn4)C3)cc2c1` (stereo not shown) [compound 677] the “log P” value was 1.34[a]. In the case of `COc1ncccc1CNC(=O)C1(C)CC(c2ccc3ncc(Br)cc3c2)=NO1` (stereo not shown) [compound 678], the “log P” value is reported as 2.82[a]. In the case of `COc1ccc(CNC(=O)C2(C)CC(c3ccc4ncc(Br)cc4c3)=NO2)cn1` (stereo not shown) [compound 679], the “log P” value is reported as 2.66[a].

Same assay, conditions: HPLC on reversed phase columns, method [a]: pH 2.7, 0.1% formic acid in water and acetonitrile, linear gradient 10% to 95% acetonitrile
In the case of `C#Cc1cnc2ccc(C3=NOC(C)(C(=O)NCc4cccnc4OC)C3)cc2c1` (stereo not shown) [compound 680], the “log P” value is reported as 2.52[a]. With `C#Cc1cnc2ccc(C3=NOC(C)(C(=O)NCc4ccc(OC)nc4)C3)cc2c1` (stereo not shown) [compound 681] the “log P” value was 2.37[a]. In the case of `C#Cc1cnc2ccc(C3=NOC(C)(C(=O)NCc4cnccc4C)C3)cc2c1` (stereo not shown) [compound 682], the “log P” value is reported as 1.29[a]. For `C#Cc1cnc2ccc(C3=NOC(C)(C(=O)NCc4ccncc4C)C3)cc2c1` (stereo not shown) [compound 683], the “log P” value was 1.29[a]. In the case of `Cc1cc(CNC(=O)C2(C)CC(c3ccc4ncc(Br)cc4c3)=NO2)ccn1` (stereo not shown) [compound 684], the “log P” value is reported as 1.40[a]. In the case of `C#Cc1cnc2ccc(C3=NOC(C)(C(=O)NCc4ccnc(C)c4)C3)cc2c1` (stereo not shown) [compound 685], the “log P” value is reported as 1.27[a]. In the case of `CC(C)c1cccc(CNC(=O)C2(C)CC(c3ccc4ncc(Br)cc4c3)=NO2)n1` (stereo not shown) [compound 686], the “log P” value is reported as 2.33[a]. In the case of `C#Cc1cnc2ccc(C3=NOC(C)(C(=O)NCc4ccc(OC)nn4)C3)cc2c1` (stereo not shown) [compound 687], the “log P” value is reported as 2.05[a]. With `COc1ncc(CNC(=O)C2(C)CC(c3ccc4ncc(Br)cc4c3)=NO2)cn1` (stereo not shown) [compound 688] the “log P” value was 2.25[a]. With `C#Cc1cnc2ccc(C3=NOC(C)(C(=O)NCc4cnc(OC)nc4)C3)cc2c1` (stereo not shown) [compound 689] the “log P” value was 2.01[a]. For `Cc1cccc(CNC(=O)C2(C)CC(c3ccc4ncc(Br)cc4c3)=NO2)n1` (stereo not shown) [compound 690], the “log P” value was 1.60[a]. For `C#Cc1cnc2ccc(C3=NOC(C)(C(=O)NCc4cccc(C)n4)C3)cc2c1` (stereo not shown) [compound 691], the “log P” value was 1.43[a]. In the case of `CC1(C(=O)NCc2cncnc2)CC(c2ccc3ncc(Br)cc3c2)=NO1` (stereo not shown) [compound 692], the “log P” value is reported as 1.95[a]. In the case of `Cc1ccncc1CNC(=O)C1(C)CC(c2ccc3ncc(Br)cc3c2)=NO1` (stereo not shown) [compound 693], the “log P” value is reported as 1.43[a]. In the case of `CCn1cc(NC(=O)C2(C)CC(c3ccc4ncc(Br)cc4c3)=NO2)cn1` (stereo not shown) [compound 694], the “log P” value is reported as 2.45[a]. With `Cc1cnccc1CNC(=O)C1(C)CC(c2ccc3ncc(Br)cc3c2)=NO1` (stereo not shown) [compound 695] the “log P” value was 1.46[a]. With `C#Cc1cnc2ccc(C3=NOC(C)(C(=O)NCc4cncc(OC)c4)C3)cc2c1` (stereo not shown) [compound 696] the “log P” value was 1.59[a]. With `C#Cc1cnc2ccc(C3=NOC(C)(C(=O)NCc4cncnc4)C3)cc2c1` (stereo not shown) [compound 697] the “log P” value was 1.74[a]. In the case of `COc1cncc(CNC(=O)C2(C)CC(c3ccc4ncc(Br)cc4c3)=NO2)c1` (stereo not shown) [compound 698], the “log P” value is reported as 1.78[a]. For `C#Cc1cnc2ccc(C3=NOC(C)(C(=O)Nc4cnn(CC)c4)C3)cc2c1` (stereo not shown) [compound 699], the “log P” value was 2.17[a]. In the case of `C#CC1(C(=O)NCc2cn(CCC)nc2C)CC(c2ccc3ncc(Br)cc3c2)=NO1` (stereo not shown) [compound 700], the “log P” value is reported as 2.78[a]. For `C#Cc1cnc2ccc(C3=NOC(C)(C(=O)NC(C)CN(C)C)C3)cc2c1` (stereo not shown) [compound 701], the “log P” value was 1.42[a]. In the case of `COC1(C(=O)NC2CCN(C)CC2)CC(c2ccc3ncc(I)cc3c2)=NO1` (stereo not shown) [compound 702], the “log P” value is reported as 1.67[a]. For `CCn1cc(CNC(=O)C2(C)CC(c3ccc4ncc(Br)cc4c3)=NO2)c(Cl)n1` (stereo not shown) [compound 704], the “log P” value was 2.84[a]. In the case of `C#Cc1cnc2ccc(C3=NOC(OC)(C(=O)NCc4cn(CC)nc4Cl)C3)cc2c1` (stereo not shown) [compound 705], the “log P” value is reported as 2.51[a]. For `CC1(C(=O)NCc2cnccn2)CC(c2ccc3ncc(Br)cc3c2)=NO1` (stereo not shown) [compound 706], the “log P” value was 2.10[a]. In the case of `Cn1c(C(=NOCc2cccc(NC(=O)C3(C)CC(c4ccc5ncc(Br)cc5c4)=NO3)n2)c2ccccc2)noc1=O` (stereo not shown) [compound 707], the “log P” value is reported as 4.49[a]. For `C#Cc1cnc2ccc(C3=NOC(OC)(C(=O)NCc4cnccn4)C3)cc2c1` (stereo not shown) [compound 708], the “log P” value was 1.85[a]. For `CCn1cc(CNC(=O)C2(C#N)CC(c3ccc4ncc(Br)cc4c3)=NO2)c(C)n1` (stereo not shown) [compound 709], the “log P” value was 2.51[a]. With `CC1(C(=O)NCCC2CC2)CC(c2ccc3ncc(Br)cc3c2)=NO1` (stereo not shown) [compound 710] the “log P” value was 3.17[a]. With `COC1(C(=O)Nc2cccc(CON=C(c3ccccc3)c3noc(=O)n3C)n2)CC(c2ccc3ncc(Br)cc3c2)=NO1` (stereo not shown) [compound 711] the “log P” value was 4.39[a]. For `COc1ccc(CCNC(=O)C2(OC)CC(c3ccc4ncc(Br)cc4c3)=NO2)cc1OC` (stereo not shown) [compound 712], the “log P” value was 2.94[a]. For `CC1(C(=O)NCCC2CCCO2)CC(c2ccc3ncc(Br)cc3c2)=NO1` (stereo not shown) [compound 713], the “log P” value was 2.39[a]. In the case of `C=C(C)CNC(=O)C1(C)CC(c2ccc3ncc(Br)cc3c2)=NO1` (stereo not shown) [compound 715], the “log P” value is reported as 2.90[a]. In the case of `CC(C)(C#N)NC(=O)C1(C)CC(c2ccc3ncc(Br)cc3c2)=NO1` (stereo not shown) [compound 716], the “log P” value is reported as 2.68[a]. With `C#CC(CC)(CC)NC(=O)C1(C)CC(c2ccc3ncc(Br)cc3c2)=NO1` (stereo not shown) [compound 717] the “log P” value was 3.96[a]. For `C#CC1(NC(=O)C2(C)CC(c3ccc4ncc(Br)cc4c3)=NO2)CC1` (stereo not shown) [compound 718], the “log P” value was 2.64[a]. For `C#Cc1cnc2ccc(C3=NOC(OC)(C(=O)NCCC4CC4)C3)cc2c1` (stereo not shown) [compound 719], the “log P” value was 2.78[a]. For `CC1(C(=O)NCCC#N)CC(c2ccc3ncc(Br)cc3c2)=NO1` (stereo not shown) [compound 720], the “log P” value was 2.15[a]. In the case of `CCC(C#N)NC(=O)C1(C)CC(c2ccc3ncc(Br)cc3c2)=NO1` (stereo not shown) [compound 721], the “log P” value is reported as 2.75[a]. In the case of `C#CC1(NC(=O)C2(C)CC(c3ccc4ncc(Br)cc4c3)=NO2)COC1` (stereo not shown) [compound 722], the “log P” value is reported as 2.37[a]. In the case of `C/C(=N\O)NC(=O)C1(C)CC(c2ccc3ncc(Br)cc3c2)=NO1` (stereo not shown) [compound 723], the “log P” value is reported as 2.04[a]. With `CCn1cc(CNC(=O)C2(C)CC(c3ccc4ncc(Br)c(Cl)c4c3)=NO2)c(C)n1` (stereo not shown) [compound 735] the “log P” value was 2.69[a]. With `CC(C)NC(=O)C1(C)CC(c2ccc3ncc(Br)c(Cl)c3c2)=NO1` (stereo not shown) [compound 736] the “log P” value was 2.39[a]. For `CC(C)NC(=O)C1(C#N)CC(c2ccc3ncc(Br)cc3c2)=NO1` (stereo not shown) [compound 737], the “log P” value was 2.86[a]. In the case of `CC(C)/C(=N\O)NC(=O)C1(C)CC(c2ccc3ncc(Br)cc3c2)=NO1` (stereo not shown) [compound 738], the “log P” value is reported as 2.50[a]. In the case of `CC1(C(=O)N/C(=N/O)C(C)(C)C)CC(c2ccc3ncc(Br)cc3c2)=NO1` (stereo not shown) [compound 739], the “log P” value is reported as 2.88[a]. For `CC1(C(=O)N/C(=N/O)C2CC2)CC(c2ccc3ncc(Br)cc3c2)=NO1` (stereo not shown) [compound 740], the “log P” value was 2.35[a]. With `CC1(C(=O)N/C(=N/O)c2cccnc2)CC(c2ccc3ncc(Br)cc3c2)=NO1` (stereo not shown) [compound 741] the “log P” value was 2.10[a]. With `CCC(C)NC(=O)C1(C)CC(c2ccc3ncc(Br)cc3c2)=NO1` (stereo not shown) [compound 742] the “log P” value was 3.37[a]. For `CC(C)CNC(=O)C1(C)CC(c2ccc3ncc(Br)cc3c2)=NO1` (stereo not shown) [compound 743], the “log P” value was 3.15[a]. In the case of `CCc1ccc(CNC(=O)C2(C)CC(c3ccc4ncc(Br)cc4c3)=NO2)nc1` (stereo not shown) [compound 744], the “log P” value is reported as 2.05[a]. In the case of `C#Cc1cnc2ccc(C3=NOC(C)(C(=O)NCc4cc(CC)ccn4)C3)cc2c1` (stereo not shown) [compound 745], the “log P” value is reported as 1.64[a]. For `CCc1cccc(CNC(=O)C2(C)CC(c3ccc4ncc(Br)cc4c3)=NO2)n1` (stereo not shown) [compound 746], the “log P” value was 1.88[a]. With `C#Cc1cnc2ccc(C3=NOC(C)(C(=O)NCc4ccc(CC)cn4)C3)cc2c1` (stereo not shown) [compound 747] the “log P” value was 1.82[a]. With `CC1(C(=O)NCc2cc(C#N)ccn2)CC(c2ccc3ncc(Br)cc3c2)=NO1` (stereo not shown) [compound 748] the “log P” value was 2.48[a].
